Test results reported in ChEMBL document CHEMBL1201862, “PubChem BioAssay data set” (2004).
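Growth conditions: 96-well plates. Treatment: test compound, 48 hours, 5 concentrations. Analysis: linear interpolation between bracketing concentrations; unreached endpoints set to highest concentration. GI50 is the concentration that inhibits growth by half.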 Active and inactive are the calls of the source. Cut-off read from the data, not from the text of the source: active = GI50 up to about 1.1 µM and inactive = higher.

Tests used:
Experiment in all cases: inhibition of tumour cell growth, NCI panel, 48 h
[1] = tested on: 786-0
[2] = tested on: MDA-MB-435
[3] = tested on: HCT-116
[4] = tested on: U-251
[5] = tested on: MDA-MB-231
[6] = tested on: BT-549
[7] = tested on: SK-MEL-28
[8] = tested on: SF-268
[9] = tested on: SN12C
[10] = tested on: RPMI-8226
[11] = tested on: SF-295
[12] = tested on: OVCAR-4
[13] = tested on: HL-60
[14] = tested on: M14
[15] = tested on: TK-10
[16] = tested on: OVCAR-3
[17] = tested on: OVCAR-5
[18] = tested on: SR
[19] = tested on: SW-620
[20] = tested on: SK-MEL-2

Measured: GI50

CC(C)(C)OC(=O)NCC(C#N)CNC(=O)OC(C)(C)C
inactive: [1] > 100 µM | [2] > 100 µM | [3] > 100 µM | [4] > 100 µM | [5] > 100 µM | [6] > 100 µM | [7] > 100 µM | [8] > 100 µM | [9] > 100 µM | [10] > 100 µM | [11] > 100 µM | [12] > 100 µM | [13] > 100 µM | [14] > 100 µM | [15] > 100 µM | [16] > 100 µM | [17] > 100 µM | [18] > 100 µM | [19] > 100 µM

CCCCCCCCOc1ccc(/C=C/C2=[N+](CCO)CCO2)cc1
inactive: [1] 3.72 µM | [2] 3.52 µM | [3] 2.7 µM | [4] 2.86 µM | [5] 3.78 µM | [6] 3.44 µM | [7] 4.53 µM | [8] 5.27 µM | [9] 3.18 µM | [10] 2.2 µM | [20] 2.3 µM | [11] 3.96 µM | [12] 3.6 µM | [13] 2.62 µM | [14] 3.8 µM | [15] 3.36 µM | [16] 3.15 µM | [17] 9.42 µM | [18] 2.19 µM | [19] 2.43 µM

COCn1cnc2c(=O)n(-c3ccc(OC)cc3)c(=S)n(-c3ccc(OC)cc3)c21
inactive: [1] > 100 µM | [2] > 100 µM | [3] > 100 µM | [4] > 100 µM | [5] > 100 µM | [6] > 100 µM | [7] > 100 µM | [8] > 100 µM | [9] > 100 µM | [10] > 100 µM | [20] > 100 µM | [11] > 100 µM | [12] 89.3 µM | [13] > 100 µM | [14] > 100 µM | [15] > 100 µM | [16] > 100 µM | [17] > 100 µM | [18] > 100 µM | [19] > 100 µM

O=P(Oc1ccc(Cl)cc1)(Oc1ccc(Cl)cc1)N1CC1
inactive: [1] > 10 µM | [2] > 10 µM | [4] > 10 µM | [5] > 10 µM | [6] > 10 µM | [7] > 10 µM | [8] > 10 µM | [9] > 10 µM | [10] > 10 µM | [20] > 10 µM | [11] > 10 µM | [12] > 10 µM | [13] > 10 µM | [14] > 10 µM | [15] > 10 µM | [16] > 10 µM | [17] > 10 µM | [18] > 10 µM | [19] > 10 µM

CC(C)(Oc1ccc(C2C[C@H]2Cl)cc1)C(=O)O (stereo partly drawn)
inactive: [1] > 100 µM | [2] > 100 µM | [3] > 100 µM | [4] > 100 µM | [5] > 100 µM | [6] > 100 µM | [7] > 100 µM | [9] > 100 µM | [10] > 100 µM | [20] > 100 µM | [11] > 100 µM | [12] > 100 µM | [13] > 100 µM | [15] > 100 µM | [16] > 100 µM | [17] > 100 µM | [18] > 100 µM | [19] > 100 µM

CC1(C)CCCC(C)(C2CCC3(C)C2C(O)CC2C4(C)CCC(O)C(C)(C)C4CCC23C)O1 (stereo not drawn)
inactive: [1] 75.7 µM | [2] > 100 µM | [3] > 100 µM | [4] > 100 µM | [5] 34.5 µM | [6] > 100 µM | [7] > 100 µM | [8] 51.1 µM | [9] > 100 µM | [20] > 100 µM | [11] 52.1 µM | [12] 66.2 µM | [13] 26.4 µM | [14] > 100 µM | [15] 86.5 µM | [17] > 100 µM | [18] > 100 µM | [19] > 100 µM

COc1ccc(Nc2cc(O)nc(O)n2)cc1
inactive: [1] > 100 µM | [2] > 100 µM | [3] > 100 µM | [4] > 100 µM | [5] > 100 µM | [6] > 100 µM | [7] > 100 µM | [8] > 100 µM | [9] > 100 µM | [10] > 100 µM | [11] > 100 µM | [12] > 100 µM | [13] > 100 µM | [14] > 100 µM | [15] > 100 µM | [16] > 100 µM | [17] > 100 µM | [18] > 100 µM | [19] > 100 µM
